One experiment concerns Puccinia triticina. Description: Wheat Brown Rust fungicidal activity (PUCCRT). The following applies: Low Volume Cereal Activity at 121.5 g/Ha. It is filed as in vivo.
Another experiment has as its system Venturia inaequalis. Put plainly: Apple Scab fungicidal activity (VENTIN). It is filed as in vivo. To be noted: 24 h, high volume, 1 Day Protectant, read-out: VENTIN % Control rating. How it is done: All fungicides were evaluated using the aforementioned method for their activity vs. all target diseases, unless stated otherwise. Wheat leaf blotch and brown rust activity were also evaluated using track spray applications, in which case the fungicides were formulated as EC formulations, containing 0.1% Trycol 5941 in the spray solutions. Wheat plants (variety Yuma) were grown from seed in a greenhouse in 50% mineral soil/50% soil-less Metro mix until the first leaf was fully emerged, with 7-10 seedlings per pot. These plants were inoculated with an aqueous spore suspension of Zymoseptoria tritici either prior to or after fungicide treatments. After inoculation the plants were kept in 100% relative humidity (one day in a dark dew chamber followed by two to three days in a lighted dew chamber at 20° C.) to permit spores to germinate and infect the leaf. The plants were then transferred to a greenhouse set at 20° C. for disease to develop. When disease symptoms were fully expressed on the 1st leaves of untreated plants, infection levels were assessed on a scale of 0 to 100 percent disease severity. Percent disease control was calculated using the ratio of disease severity on treated plants relative to untreated plants. […] Seedlings with two expanding young leaves at the top (older leaves at bottom of the plants were trimmed) were used in the test. Plants were inoculated with a spore suspension of Venturia inaequalis 24 hr after fungicide treatment and kept in a 22° C. dew chamber with 100% relative humidity for 48 hr, and then moved to a greenhouse set at 20° C. for disease to develop. Fungicide formulation, application and disease assessment on the sprayed leaves followed the procedures as described in the Example A.

Another experiment deals with Cercospora beticola. Description: Leaf Spot of Sugar Beets fungicidal activity (CERCBE). It is filed as in vivo. To be noted: 24 h, sugar beet, high volume, 1 Day Protectant, read-out: CERCBE % Control rating. As for the experimental part: All fungicides were evaluated using the aforementioned method for their activity vs. all target diseases, unless stated otherwise. Wheat leaf blotch and brown rust activity were also evaluated using track spray applications, in which case the fungicides were formulated as EC formulations, containing 0.1% Trycol 5941 in the spray solutions. Wheat plants (variety Yuma) were grown from seed in a greenhouse in 50% mineral soil/50% soil-less Metro mix until the first leaf was fully emerged, with 7-10 seedlings per pot. These plants were inoculated with an aqueous spore suspension of Zymoseptoria tritici either prior to or after fungicide treatments. After inoculation the plants were kept in 100% relative humidity (one day in a dark dew chamber followed by two to three days in a lighted dew chamber at 20° C.) to permit spores to germinate and infect the leaf. The plants were then transferred to a greenhouse set at 20° C. for disease to develop. When disease symptoms were fully expressed on the 1st leaves of untreated plants, infection levels were assessed on a scale of 0 to 100 percent disease severity. Percent disease control was calculated using the ratio of disease severity on treated plants relative to untreated plants. Sugar beet plants (variety HH88) were grown in soil-less Metro mix and trimmed regularly to maintain a uniform plant size prior to test. Plants were inoculated with a spore suspension 24 hr after fungicide treatments. Inoculated plants were kept in a dew chamber at 22° C. for 48 hr then incubated in a greenhouse set at 24° C. under a clear plastic hood with bottom ventilation until disease symptoms were fully expressed. Fungicide formulation, application and disease assessment on the sprayed leaves followed the procedures as described in the Example A.

The test system of another experiment is Phakopsora pachyrhizi. Description: Asian Soybean Rust fungicidal activity (PHAKPA). To be noted: for pest or weed control at 25 ppm: Phakopsora pachyrhizi, in Glycine max.
Another experiment concerns Alternaria solani. Put plainly: Tomato Early Blight fungicidal activity (ALTESO). Type of experiment: in vivo. The following applies: 24 h, high volume, 1 Day Protectant, read-out: ALTESO % Control rating. How it is done: All fungicides were evaluated using the aforementioned method for their activity vs. all target diseases, unless stated otherwise. Wheat leaf blotch and brown rust activity were also evaluated using track spray applications, in which case the fungicides were formulated as EC formulations, containing 0.1% Trycol 5941 in the spray solutions. Wheat plants (variety Yuma) were grown from seed in a greenhouse in 50% mineral soil/50% soil-less Metro mix until the first leaf was fully emerged, with 7-10 seedlings per pot. These plants were inoculated with an aqueous spore suspension of Zymoseptoria tritici either prior to or after fungicide treatments. After inoculation the plants were kept in 100% relative humidity (one day in a dark dew chamber followed by two to three days in a lighted dew chamber at 20° C.) to permit spores to germinate and infect the leaf. The plants were then transferred to a greenhouse set at 20° C. for disease to develop. When disease symptoms were fully expressed on the 1st leaves of untreated plants, infection levels were assessed on a scale of 0 to 100 percent disease severity. Percent disease control was calculated using the ratio of disease severity on treated plants relative to untreated plants. Tomato plants (variety Outdoor Girl) were propagated in soil-less Metro mix, with each pot having one plant, and used when 12 to 14 days old. Test plants were inoculated with an aqueous spore suspension of Alternaria solani 24 hr after fungicide treatments. After inoculation the plants were kept in a dew room at 22° C. with 100% relative humidity for 48 hr to permit spores to germinate and infect the leaf. The plants were then transferred to a growth room at 22° C. for disease to develop. Fungicide formulation, application and disease assessment on the sprayed leaves followed the procedures as described in the Example A.

The subject of the next experiment is Zymoseptoria tritici. Description: Leaf Blotch of Wheat fungicidal activity (SEPTTR). It is filed as in vivo. The following applies: Low Volume Cereal Activity at 121.5 g/Ha.
Where [1] appears, read: 24 h, 1 Day Protectant, read-out: PUCCRT 1DP (Wheat Brown Rust, 1 Day Protectant).
The mark [2] stands for this setting: 72 h, 3 Day Curative, read-out: PUCCRT 3DC (Wheat Brown Rust, 3 Day Curative).
[3] abbreviates: 24 h, read-out: PHAKPA 1DP % Control rating, soybean, high volume, 25 ppm, 1 Day Protectant.
The mark [4] stands for this setting: 72 h, read-out: PHAKPA 3DC % Control rating, soybean, high volume, 25 ppm, 3 Day Curative.
[5] abbreviates: 24 h, 1 Day Protectant, read-out: SEPTTR 1DP (Wheat Leaf Blotch, 1 Day Protectant).
Setting [6] is: 72 h, 3 Day Curative, read-out: SEPTTR 3DC (Wheat Leaf Blotch, 3 Day Curative).

Where two headings read alike, the source gives them in different places. Bounds are passed on as bounds.

The text below walks through data of patent US20180002288A1, “USE OF PICOLINAMIDES AS FUNGICIDES” (DOW AGROSCIENCES LLC, priority 2014, published 2018).

Regarding `COc1ccnc(C(=O)N[C@H](C)C(=O)O[C@H](C)[C@@H](Oc2ccccc2)c2ccccc2)c1OCOC(C)=O` [Example 186], the pest or weed control at 121.5 g/ha in the experiment with Puccinia triticina (setting [1]) is below 0%; in the experiment with Puccinia triticina (setting [2]), below 0%; with Zymoseptoria tritici (setting [5]), below 80%; in the experiment on Zymoseptoria tritici (setting [6]) it was below 80%. For the same compound, the pest or weed control at 100 ppm in the experiment with Venturia inaequalis, in the experiment on Cercospora beticola and with Alternaria solani was below 80% in each case. Further, the pest or weed control at 25 ppm with Phakopsora pachyrhizi (setting [3]) and in the experiment with Phakopsora pachyrhizi (setting [4]) was below 0% in each case.
Consider `COc1ccnc(C(=O)N[C@@H](C)C(=O)O[C@H](C)[C@@H](Oc2ccccc2)c2ccccc2)c1OCOC(C)=O` [Example 185], for which the pest or weed control at 121.5 g/ha with Puccinia triticina (setting [1]), with Puccinia triticina (setting [2]), in the experiment on Zymoseptoria tritici (setting [5]) and with Zymoseptoria tritici (setting [6]) was above 80% each time. Further, the pest or weed control at 100 ppm with Venturia inaequalis, with Cercospora beticola and in the experiment on Alternaria solani was below 80% each time. For the same compound, the pest or weed control at 25 ppm is below 80% in the experiment with Phakopsora pachyrhizi (setting [3]) and below 0% with Phakopsora pachyrhizi (setting [4]).
For the compound `COc1ccnc(C(=O)N[C@@H](C)C(=O)O[C@@H](C)[C@H](Oc2ccccc2)c2ccc(F)cc2)c1OC(C)=O` [Example 242], the pest or weed control at 121.5 g/ha with Puccinia triticina (setting [1]), in the experiment on Puccinia triticina (setting [2]), with Zymoseptoria tritici (setting [5]) and in the experiment with Zymoseptoria tritici (setting [6]) was above 80% each time. Besides, the results for the pest or weed control at 25 ppm with Phakopsora pachyrhizi (setting [3]) and with Phakopsora pachyrhizi (setting [4]) were above 80% and below 80%, respectively.
As to `COc1ccnc(C(=O)N[C@@H](C)C(=O)O[C@@H](C)[C@H](Oc2ccccc2)c2ccc(F)cc2OCC(F)F)c1OC(C)=O` [Example 273], the pest or weed control at 121.5 g/ha with Puccinia triticina (setting [1]), in the experiment on Puccinia triticina (setting [2]), in the experiment on Zymoseptoria tritici (setting [5]) and with Zymoseptoria tritici (setting [6]) was above 80% throughout. For the same compound, the results for the pest or weed control at 25 ppm in the experiment with Phakopsora pachyrhizi (setting [3]) and with Phakopsora pachyrhizi (setting [4]) were below 80% and below 0%, respectively.
In the case of `COc1cc(F)ccc1[C@@H](Oc1ccccc1)[C@H](C)OC(=O)[C@H](C)NC(=O)c1nccc(OC)c1OC(C)=O` [Example 269], the pest or weed control at 121.5 g/ha with Puccinia triticina (setting [1]), with Puccinia triticina (setting [2]), in the experiment on Zymoseptoria tritici (setting [5]) and in the experiment on Zymoseptoria tritici (setting [6]) was above 80% throughout. For the same compound, in the experiment with Phakopsora pachyrhizi (setting [3]), the pest or weed control at 25 ppm was above 80%. Further, the “PHAKPA 3DC % Control rating” value in the experiment on Phakopsora pachyrhizi (soybean, high volume, 25 ppm, 3 Day Curative) is “B (≦80)”.
With `COc1cc(F)ccc1[C@@H](OCC(F)F)[C@H](C)OC(=O)[C@H](C)NC(=O)c1nccc(OC)c1OC(C)=O` [Example 294], the pest or weed control at 121.5 g/ha with Puccinia triticina (setting [1]) was below 80%; in the experiment on Puccinia triticina (setting [2]), below 80%; with Zymoseptoria tritici (setting [5]) it was above 80%; with Zymoseptoria tritici (setting [6]) it was above 80%. The pest or weed control at 25 ppm with Phakopsora pachyrhizi (setting [3]) and with Phakopsora pachyrhizi (setting [4]) was below 80% throughout.
